Type in all cases: in vivo
Assay [1] deals with Oryza sativa (ORYSA). The assay is described as follows: Post-emergence herbicidal activity. The following applies: post-emergence application, 1000 g/Ha, evaluated after 13 days, scale 0-5. In a few lines: (§1)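 Scores run from 0 (no damage) to 5 (total plant damage), assessed 13 days after spraying. Seedlings were treated 8 days after sowing with an aqueous spray from an acetone/water (50:50) formulation with 0.5% Tween 20, then kept at 24/16 °C day/night, 14 h light.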

Assay [2] relates to Triticum aestivium (TRZAW). The assay is described as follows: Post-emergence herbicidal activity. The settings on record: post-emergence application, 1000 g/Ha, evaluated after 13 days, scale 0-5. The gist of the method:
as §1

Assay [3] concerns Alopecurus myosuroides (ALOMY). Put plainly: Post-emergence herbicidal activity. The following applies: post-emergence application, 1000 g/Ha, evaluated after 13 days, scale 0-5. In a few lines:
as §1

The subject of assay [4] is Avena fatua (AVEFA). Put plainly: Post-emergence herbicidal activity. The following applies: post-emergence application, 1000 g/Ha, evaluated after 13 days, scale 0-5. The gist of the method: as §1
The test system of assay [5] is Lolium perenne (LOLPE). Put plainly: Post-emergence herbicidal activity. The following applies: post-emergence application, 1000 g/Ha, evaluated after 13 days, scale 0-5; Table 7. The gist of the method: as §1
Assay [6] deals with Echinochloa crus-galli (ECHCG). The assay is described as follows: Post-emergence herbicidal activity. The following applies: post-emergence application, 1000 g/Ha, evaluated after 13 days, scale 0-5; Table 7. In a few lines: as §1
The test system of assay [7] is Oryza sativa (ORYSA). The assay is described as follows: Pre-emergence herbicidal activity. The settings on record: pre-emergence application, 1000 g/Ha, evaluated after 13 days, scale 0-5. The gist of the method:
(§2)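 Seeds sown in standard soil, sprayed one day after sowing with active ingredient formulated in acetone/water (50:50) with 0.5% Tween 20. Glasshouse at 24/16 °C day/night, 14 h light, 65% humidity, watered twice daily; damage scored after 13 days on a 0–5 scale (5 = total damage).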

In assay [8] the test system is Triticum aestivium (TRZAW). Put plainly: Pre-emergence herbicidal activity. The following applies: pre-emergence application, 1000 g/Ha, evaluated after 13 days, scale 0-5. In a few lines:
as §2

In assay [9] the test system is Alopecurus myosuroides (ALOMY). Put plainly: Pre-emergence herbicidal activity. The settings on record: pre-emergence application, 1000 g/Ha, evaluated after 13 days, scale 0-5. The gist of the method:
as §2

Assay [10] relates to Avena fatua (AVEFA). The assay is described as follows: Pre-emergence herbicidal activity. The settings on record: pre-emergence application, 1000 g/Ha, evaluated after 13 days, scale 0-5. In a few lines:
as §2

Assay [11] has as its system Lolium perenne (LOLPE). The assay is described as follows: Pre-emergence herbicidal activity. The following applies: pre-emergence application, 1000 g/Ha, evaluated after 13 days, scale 0-5; Table 5. The gist of the method: as §2
Assay [12] deals with Echinochloa crus-galli (ECHCG). Put plainly: Pre-emergence herbicidal activity. The following applies: pre-emergence application, 1000 g/Ha, evaluated after 13 days, scale 0-5; Table 5. The gist of the method:
as §2

As for `CCOC(=O)N(C)c1sc(-c2cccnc2)nc1C` [Compound A19, ethyl N-methyl-N-[4-methyl-2-(3-pyridyl)thiazol-5-yl]carbamate], the “Control of weed species, ORYSA (damage score)” value (“Control of weed species, ORYSA” below) in assay [1] and in assay [7] was 0 in each case. Besides, the “Control of weed species, TRZAW (damage score)” value (“Control of weed species, TRZAW” below) in assay [2] came to 1; in assay [8], 0. The “Control of weed species, ALOMY (damage score)” value (“Control of weed species, ALOMY” below) in assay [3] and in assay [9] was 1 throughout. In addition, the “Control of weed species, AVEFA (damage score)” value (“Control of weed species, AVEFA” below) in assay [4] was determined as 3; in assay [10], 1. For the same molecule, the “Control of weed species, LOLPE (damage score)” value (“Control of weed species, LOLPE” below) is 2 in assay [5] and 1 in assay [11]. The “Control of weed species, ECHCG (damage score)” value (“Control of weed species, ECHCG” below) in assay [6] and in assay [12] was 5 in each case.
For the molecule `Cc1nc(-c2cncc(C#N)c2)sc1N(C)C(=O)OC(C)(C)C` [Compound A7], the “Control of weed species, ORYSA” value in assay [1] and in assay [7] was 1 each time. Also, the “Control of weed species, TRZAW” value in assay [2] was found to be 2; in [8], 1. In addition, the “Control of weed species, ALOMY” value in assay [3] and in assay [9] was 1 each time. Further, the “Control of weed species, AVEFA” value in assay [4] and in assay [10] was 4 in each case. Moreover, the “Control of weed species, LOLPE” value was 3 in assay [5] and 2 in assay [11]. Besides, the “Control of weed species, ECHCG” value is recorded as 5 in assay [6] and 2 in assay [12].
Consider `Cc1nc(-c2cncc(Cl)c2)sc1N(C)C(=O)OC(C)(C)C` [Compound A4], for which the results for the “Control of weed species, ORYSA” value in [1] and in assay [7] were 1 and 0, respectively. Also, the results for the “Control of weed species, TRZAW” value in [2] and in [8] were 1 and 0, respectively. For the same molecule, the “Control of weed species, ALOMY” value turned out to be 0 in assay [3] and 1 in assay [9]. Also, the “Control of weed species, AVEFA” value in assay [4] worked out at 5; in [10], 4. Moreover, the “Control of weed species, LOLPE” value in [5] and in assay [11] was 2 throughout. The “Control of weed species, ECHCG” value in assay [6] and in assay [12] was 4 each time.
In the case of `CSc1cncc(-c2nc(C)c(N(C)C(=O)OC(C)(C)C)s2)c1` [Compound A12], the figures for the “Control of weed species, ORYSA” value in assay [1] and in [7] were 1 and 0, respectively. The entries for the “Control of weed species, TRZAW” value in assay [2] and in assay [8] were 2 and 0, respectively. Besides, the “Control of weed species, ALOMY” value in assay [3] and in assay [9] was 0 each time. The “Control of weed species, AVEFA” value in assay [4] stood at 2; in assay [10] it was 3. Further, the “Control of weed species, LOLPE” value in [5] is reported as 3; in assay [11], 1. The “Control of weed species, ECHCG” value was 4 in assay [6] and 3 in assay [12].
With `CN(C(=O)OC(C)(C)C)c1sc(-c2cccnc2)nc1F` [Compound A32, tert-butyl N-[4-fluoro-2-(3-pyridyl)thiazol-5-yl]-N-methyl-carbamate], the “Control of weed species, ORYSA” value is listed as 1 in assay [1] and 2 in assay [7]. In addition, the “Control of weed species, TRZAW” value in [2] and in [8] was 0 throughout. Moreover, the “Control of weed species, ALOMY” value was found to be 1 in [3] and 0 in [9]. For the same molecule, the “Control of weed species, AVEFA” value stood at 3 in assay [4] and 1 in assay [10]. Also, the “Control of weed species, LOLPE” value in [5] is given as 2; in [11] it was 1. The “Control of weed species, ECHCG” value in [6] came out at 3; in assay [12], 2.
`CN(C(=O)OC(C)(C)C)c1sc(-c2cncnc2)nc1C(F)(F)F` [Compound A26]: the “Control of weed species, ORYSA” value was found to be 2 in assay [1] and 1 in [7]. Further, the “Control of weed species, TRZAW” value in assay [2] amounted to 1; in [8], 0. Besides, the results for the “Control of weed species, ALOMY” value in [3] and in [9] were 0 and 2, respectively. In addition, the “Control of weed species, AVEFA” value in [4] is 5; in assay [10], 4. In addition, the “Control of weed species, LOLPE” value in [5] is recorded as 4; in assay [11] it was 3. For the same molecule, the entries for the “Control of weed species, ECHCG” value in assay [6] and in assay [12] were 5 and 4, respectively.
With `Cc1nc(-c2cccnc2)sc1N(C)C(=S)SC(C)(C)C` [Compound A23, tert-butyl N-methyl-N-[4-methyl-2-(3-pyridyl)thiazol-5-yl]carbamodithioate], the “Control of weed species, ORYSA” value in assay [1] and in assay [7] was 0 in each case. Also, the “Control of weed species, TRZAW” value in assay [2] and in assay [8] was 0 each time. Also, the “Control of weed species, ALOMY” value in assay [3] and in assay [9] was 0 each time. In addition, the “Control of weed species, AVEFA” value in assay [4] stood at 1; in assay [10], 0. Further, the “Control of weed species, LOLPE” value in [5] and in [11] was 0 each time. The “Control of weed species, ECHCG” value is on record as 1 in assay [6] and 0 in assay [12].
`CN(C(=O)OC(C)(C)C)c1sc(-c2cccnc2)nc1Br` [Compound A30, tert-butyl N-[4-bromo-2-(3-pyridyl)thiazol-5-yl]-N-methyl-carbamate]: the “Control of weed species, ORYSA” value in [1] and in [7] was 1 each time. Also, the “Control of weed species, TRZAW” value in assay [2] turned out to be 2; in assay [8] it was 0. Besides, the “Control of weed species, ALOMY” value in assay [3] and in [9] was 1 in each case. Besides, the results for the “Control of weed species, AVEFA” value in assay [4] and in assay [10] were 4 and 3, respectively. Further, the “Control of weed species, LOLPE” value in assay [5] was determined as 4; in [11], 2. Moreover, the “Control of weed species, ECHCG” value in assay [6] is listed as 5; in assay [12] it was 4.
On to `Cc1nc(-c2cncc(F)c2)sc1N(C)C(=O)OC(C)(C)C` [Compound A3, tert-butyl N-[2-(5-fluoro-3-pyridyl)-4-methyl-thiazol-5-yl]-N-methyl-carbamate], for which the “Control of weed species, ORYSA” value in [1] and in assay [7] was 1 in each case. In addition, the “Control of weed species, TRZAW” value in assay [2] and in assay [8] was 1 throughout. Also, the “Control of weed species, ALOMY” value in [3] and in [9] was 1 in each case. Further, the “Control of weed species, AVEFA” value in assay [4] is 4; in assay [10], 3. Moreover, the “Control of weed species, LOLPE” value in assay [5] turned out to be 3; in assay [11] it was 2. The results for the “Control of weed species, ECHCG” value in assay [6] and in assay [12] were 5 and 4, respectively.

Values taken from US11470846B2, “Herbicidal pyridino-/pyrimidino-thiazoles” (SYNGENTA PARTICIPATIONS AG, priority 2014, dated 2022).
